{
  "source": "patent US7052871B2",
  "about": "“Methods of improving transformation efficiency of plants with auxin responsive promoter sequences” (Pioneer Hi-Bred International, Inc., priority 2000, dated 2006)",
  "key": {"[1]": {"tested_on": "ZmAxig1 mRNA in BMS (Black Mexican Sweet) maize cells", "test": "Northern blot of mRNA from BMS cells cultured on auxin-containing medium, probed with SEQ ID No. 12", "assay_type": "cell-based, Zea mays", "conditions": "BMS cultured cells (FIG. 4)"}, "[2]": {"tested_on": "ZmAxig1 mRNA", "test": "Northern blot of mRNA from treated plants probed with SEQ ID No. 12 (CJLP181)", "assay_type": "in vivo, Zea mays", "conditions": "for hybridization of SEQ ID No. 12 probe with mRNA from anther or entire aerial portion of treated plants: anther or entire aerial portion of treated plants (FIG. 4)"}, "[3]": {"tested_on": "male fertility of pZmAxig1:Ms45 plants", "test": "Fertility restoration in ms45 male sterile maize plants transformed with V2 (pZmAxig1:Ms45)", "assay_type": "in vivo, Zea mays", "description": "A second DNA plasmid was constructed by combining the ZmAxig1 promoter (1306 bases 5′ of start codon; SEQ ID NO: 16) with the Ms45 coding sequence and 35S:PAT in a T-DNA vector. This plasmid was cointegrated with Japan Tobacco plasmid pSB1 to create a second suitable vector, V2.\nMaize GS3Ms45EX4 embryos, segregating for homozygous ms45 (male sterile) and Ms45/ms45 (male fertile) genotypes, were transformed with the first and second vectors using Agrobacterium.\nTransformed cell lines homozygous for the ms45 male sterile genotype were screened by quantitative PCR screening and advanced for regeneration into plants. Positive lines were transferred to 289B medium, an MS-based medium containing bialaphos and carbenicillin, with lower sucrose and hormone levels, to initiate plant regeneration. Following somatic embryo maturation (2–3 weeks), well-developed somatic embryos were transferred to medium for germination and transferred to the lighted culture room. Approximately 7 days later, developing plantlets were transferred to medium in tubes for 7 days until plantlets were well established. Plants were then transferred to inserts in flats (equivalent to 2.5″ pot) containing potting soil and grown for one week in a growth chamber, subsequently grown an additional 1–2 weeks in the greenhouse, then transferred to classic 600 pots (1.6 gallon) and grown to maturity.\nFrom each of 20 independent callus lines transformed with V2, six regenerated plants were grown in the greenhouse. […] The plants were scored for fertility after tassels emerged."}, "[4]": {"tested_on": "cDNA fragments (w0h051.7, ZmAxig1)", "conditions": "anthers; two daily soil drenches of 12 μl dicamba formulation in 450 ml water", "description": "Anthers containing microsporocytes at meiosis […] through early uninucleate stages of development were harvested on the third day and frozen. Anthers containing microsporocytes at prophase through early uninucleate stages of development were harvested from non-treated plants. Frozen tissues were ground and total RNA extracted with Tripure™ isolation reagent (Boehringer Mannheim, Indianapolis, Ind.) according to the manufacturer's instructions.\nRNA isolated from anthers of three dicamba-treated plants and three non-treated plants was sent to laboratories of CuraGen Corporation (New Haven, Conn.) for quantitative expression profiling. […] (FIG. 3)"}, "[5]": {"tested_on": "ZmAxig1 expression in anthers", "protocol": "Progeny of transgenic maize plants, hemizygous for the maize anther-preferred promoter 5126 (U.S. Pat. Nos. 5,689,049 and 5,689,051) driving DAM methylase linked with 35S:PAT (p5126:DAM/35S:PAT), were grown in the greenhouse. Expression of p5126:DAM is known to ablate the tapetum prior to the quartet stage of microspore development, which results in male sterile plants.\nPlants segregating for male fertile/glufosinate-ammonium susceptible phenotype (wild-type) or for male sterile/glufosinate-ammonium resistant phenotype (p5126:DAM/35S:PAT), were treated with a dicamba soil drench as described above, or were not treated. Quartet/early-uninucleate stage anthers were harvested from these plants and mRNA was isolated with the QuickPrep® Micro mRNA purification kit (Amersham Pharmacia, Piscataway, N.J.) according to the manufacturer's instructions.\n(§1) Quartet/early-uninucleate stage anthers from dicamba-treated or non-treated plants were harvested and embedded for in situ hybridization or frozen for mRNA isolation as described above."}, "[6]": {"tested_on": "ZmAxig1 transcripts in the tapetum", "conditions": "treated plants (FIG. 7)", "description": "as §1"}},
  "data": [
    {"compound": "O=C(O)COc1ccc(Cl)cc1Cl", "note": "[2,4-D, 2,4-dichlorophenoxyacetic acid]", "values": [
      {"measurement": "hybridization of SEQ ID No. 12 probe with mRNA from BMS maize cultured on medium containing the auxin", "setting": "[1]", "result": "hybridized"}
    ]},
    {"compound": "NC(=O)NS(=O)(=O)c1ccccc1Cl", "note": "[CBSU]", "values": [
      {"measurement": "hybridization of SEQ ID No. 12 probe with mRNA from anther or entire aerial portion of treated plants", "setting": "[2]", "result": "did not hybridize"}
    ]},
    {"compound": "CC1=C(C(=O)Nc2ccccc2)SCCO1", "note": "[Carboxin]", "values": [
      {"measurement": "hybridization of SEQ ID No. 12 probe with mRNA from anther or entire aerial portion of treated plants", "setting": "[2]", "result": "did not hybridize"}
    ]},
    {"compound": "C=CCN(CC=C)C(=O)C(Cl)Cl", "note": "[Dichlormid]", "values": [
      {"measurement": "hybridization of SEQ ID No. 12 probe with mRNA from anther or entire aerial portion of treated plants", "setting": "[2]", "result": "did not hybridize"}
    ]},
    {"compound": "CN(C)C(=O)Nc1ccc(Cl)c(Cl)c1", "note": "[Diuron]", "values": [
      {"measurement": "hybridization of SEQ ID No. 12 probe with mRNA from anther or entire aerial portion of treated plants", "setting": "[2]", "result": "did not hybridize"}
    ]},
    {"compound": "COCC(=O)N(c1c(C)cccc1C)C(C)C(=O)OC", "note": "(stereo not shown) [Metalaxyl]", "values": [
      {"measurement": "hybridization of SEQ ID No. 12 probe with mRNA from anther or entire aerial portion of treated plants", "setting": "[2]", "result": "did not hybridize"}
    ]},
    {"compound": "O=C(O)c1nc(Cl)ccc1Cl", "note": "[clopyralid]", "values": [
      {"measurement": "plants showing partial to complete male fertile phenotypes, foliar application", "setting": "[3]; 10 μl clopyralid formulation, foliar application with 1 ml water, homozygous ms45 V2 progeny", "result": "Two of five"},
      {"measurement": "plants showing partial to complete male fertile phenotypes, soil drench application", "setting": "[3]; 10 μl clopyralid formulation, soil drench with 200 ml water, homozygous ms45 V2 progeny", "result": "three of six"}
    ]},
    {"compound": "COc1c(Cl)ccc(Cl)c1C(=O)O", "note": "[dicamba]", "values": [
      {"measurement": "expression level of induced cDNA fragments relative to the control", "setting": "[4]", "result": "greater than 2.5 fold"},
      {"measurement": "hybridization of SEQ ID No. 12 probe with mRNA from anthers of treated plants", "setting": "[2]; anthers, northern blot (FIG. 3)", "result": "hybridized very strongly"},
      {"measurement": "hybridization of SEQ ID No. 12 probe with mRNA from tassel or whorl leaf of treated plants", "setting": "[2]; tassel or whorl leaf, northern blot (FIG. 3)", "result": "to a lesser degree"},
      {"measurement": "ZmAxig1 expression in anthers of treated plants (Northern blot)", "setting": "[5]; quartet/early-uninucleate stage anthers", "result": "induced"},
      {"measurement": "induction of ZmAxig1 expression in anthers from wild-type male fertile plants", "setting": "[5]; soil drench, quartet/early-uninucleate stage anthers (FIG. 6)", "result": "induced expression of ZmAxig1"},
      {"measurement": "induction of ZmAxig1 expression in anthers from male sterile p5126:DAM/35S:PAT plants", "setting": "[5]; soil drench, tapetum-ablated male sterile plants (FIG. 6)", "result": "not in anthers from male sterile plants"},
      {"measurement": "in situ hybridization of ZmAxig1 antisense RNA probe to RNA in tapetum of anthers and microspores", "setting": "[6]", "result": "strong in situ hybridization"},
      {"measurement": "plants with fertile phenotype", "setting": "[3]; of 81 treated V2 plants", "result": 33, "unit": "plants"},
      {"measurement": "plants with shedder (partially fertile) phenotype", "setting": "[3]; of 81 treated V2 plants", "result": 36, "unit": "plants"},
      {"measurement": "plants that produced anthers with pollen", "setting": "[3]; of 81 treated V2 plants, daily soil drench 3 μl dicamba formulation, one to three days", "result": 69, "unit": "plants"},
      {"measurement": "viability of pollen from treated plants", "setting": "[3]; pollen from 9 treated plants used to pollinate non-transformed ears, kernels germinated", "result": "viable"}
    ]}
  ]
}
